# Assay results from article PMC4256047, “Structural and Functional Profiling of Environmental Ligands for Estrogen Receptors” (Environmental Health Perspectives, 2014).
# Primed or numbered codes have the meaning given here. Where no end group is shown, it is not given here. fluorescein″ = fluorescein label on the peptide (N-terminal, fluorescein-labeled peptide)
# T1: wild-type ERα LBD (Homo sapiens, UniProt P03372)
# T1 sequence (P03372 302-552): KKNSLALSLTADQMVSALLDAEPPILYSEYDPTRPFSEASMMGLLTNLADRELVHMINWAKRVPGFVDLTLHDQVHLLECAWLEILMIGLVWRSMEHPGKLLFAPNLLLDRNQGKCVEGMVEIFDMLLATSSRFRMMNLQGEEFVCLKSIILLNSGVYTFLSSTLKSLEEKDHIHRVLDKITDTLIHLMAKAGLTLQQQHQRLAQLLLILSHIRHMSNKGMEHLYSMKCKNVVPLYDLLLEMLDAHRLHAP
# T2: human ERα (Homo sapiens, UniProt P03372)
# T2 sequence (P03372 1-595): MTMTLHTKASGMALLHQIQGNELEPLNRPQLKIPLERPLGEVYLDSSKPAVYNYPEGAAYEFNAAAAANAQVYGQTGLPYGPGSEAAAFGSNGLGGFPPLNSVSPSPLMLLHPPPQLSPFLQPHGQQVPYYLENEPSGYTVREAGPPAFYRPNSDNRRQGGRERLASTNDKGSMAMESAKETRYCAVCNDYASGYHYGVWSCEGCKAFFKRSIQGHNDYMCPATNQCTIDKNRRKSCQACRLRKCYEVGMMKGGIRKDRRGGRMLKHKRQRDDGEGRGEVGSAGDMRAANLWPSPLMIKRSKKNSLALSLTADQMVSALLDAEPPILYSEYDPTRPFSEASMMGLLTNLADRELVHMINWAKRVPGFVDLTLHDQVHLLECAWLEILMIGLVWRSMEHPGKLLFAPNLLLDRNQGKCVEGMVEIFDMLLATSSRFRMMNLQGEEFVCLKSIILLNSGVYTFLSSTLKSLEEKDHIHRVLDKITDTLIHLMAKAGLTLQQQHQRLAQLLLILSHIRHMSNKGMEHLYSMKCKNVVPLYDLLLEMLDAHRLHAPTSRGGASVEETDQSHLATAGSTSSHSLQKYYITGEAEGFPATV
# T3: wt-ERα LBD (wild-type estrogen receptor α ligand-binding domain, amino acids 302–552) (human, UniProt P03372 302-552)
# T3 construct: also called wild-type ERα LBD; apo-ERα
# T3 sequence (looked up): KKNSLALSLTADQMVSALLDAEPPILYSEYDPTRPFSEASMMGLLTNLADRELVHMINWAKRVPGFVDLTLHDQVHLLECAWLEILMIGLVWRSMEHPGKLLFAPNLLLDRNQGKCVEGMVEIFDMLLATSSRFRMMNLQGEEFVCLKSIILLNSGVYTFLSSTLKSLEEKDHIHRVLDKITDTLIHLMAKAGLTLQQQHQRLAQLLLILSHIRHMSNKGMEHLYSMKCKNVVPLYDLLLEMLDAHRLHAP
# B1: fluorescein-RHKILHRLLQEGS peptide corresponding to the NR box 2-binding motif of SRC-1 (peptide)
# peptide: {fluorescein″}-RHKILHRLLQEGS
# notes: also called fluorescein-labeled SRC-1 NR2 peptide; SRC-1 NR2 peptide; source: synthetic peptide, bought: EZbiolab
# Assays:
# wild-type ERβ LBD = wild-type ERβ LBD (Homo sapiens, UniProt Q92731); experiment: fluorescence anisotropy, SRC-1 NR2 peptide recruitment by ERβ LBD; details: class from Kd of SRC-1 peptide for ERβ LBD
# wild-type ERα LBD = molecular target: T1, wild-type ERα LBD; experiment: fluorescence anisotropy, SRC-1 NR2 peptide recruitment by ERα LBD; details: class from Kd of SRC-1 peptide for ERα LBD
# human ERα = molecular target: T2, human ERα; experiment: HGELN-ERα luciferase transactivation assay; details: for agonistic potential in words, FL-ERα: HGELN-ERα, full-length receptor; for relative activation of the two ER subtypes: HGELN-ERα versus HGELN-ERβ, full-length receptors
# human ERβ = human ERβ (Homo sapiens, UniProt Q92731); experiment: HGELN-ERβ luciferase transactivation assay; details: full-length receptor
# ΔAB-ERβ = experiment: HGELN-ΔAB-ERβ luciferase transactivation assay
# ER = system: ER; parameters: method as in Wilson et al. 2004; details: ref Wilson et al. 2004; cited from earlier work
# ΔAB-ERα = experiment: HGELN-ΔAB-ERα luciferase transactivation assay
# [1] = molecular target: T3, wt-ERα LBD (wild-type estrogen receptor …); experiment: fluorescence polarisation; fluorescence anisotropy as a1, with 4-OP at 2 molar equivalents of the highest protein concentration; details: both partners purified
# [2] = molecular target: T4, wt-ERβ LBD (wild-type estrogen receptor β ligand-binding domain, amino acids 261–502) (human, UniProt Q92731 261-502); experiment: fluorescence polarisation; fluorescence anisotropy as a1, with BP-2 at 2 molar equivalents of the highest protein concentration; details: both partners purified
# T4 construct: also called wild-type ERβ LBD; apo-ERβ
# [3] = molecular target: T3, wt-ERα LBD (wild-type estrogen receptor …); experiment: fluorescence polarisation; fluorescence anisotropy as a1, with α-ZA at 2 molar equivalents of the highest protein concentration; details: both partners purified
# [4] = molecular target: T4, wt-ERβ LBD (wild-type estrogen receptor …); experiment: as above; details: both partners purified
# Sequence of wild-type ERβ LBD (Q92731 261-502): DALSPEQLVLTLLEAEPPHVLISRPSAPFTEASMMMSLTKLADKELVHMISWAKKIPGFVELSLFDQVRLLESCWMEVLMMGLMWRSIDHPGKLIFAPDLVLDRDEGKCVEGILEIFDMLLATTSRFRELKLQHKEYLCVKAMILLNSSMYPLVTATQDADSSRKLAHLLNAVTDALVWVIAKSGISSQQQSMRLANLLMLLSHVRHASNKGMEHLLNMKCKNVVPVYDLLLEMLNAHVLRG
# T4 sequence (Q92731 261-502): as above
# Sequence of human ERβ (Q92731 whole entry): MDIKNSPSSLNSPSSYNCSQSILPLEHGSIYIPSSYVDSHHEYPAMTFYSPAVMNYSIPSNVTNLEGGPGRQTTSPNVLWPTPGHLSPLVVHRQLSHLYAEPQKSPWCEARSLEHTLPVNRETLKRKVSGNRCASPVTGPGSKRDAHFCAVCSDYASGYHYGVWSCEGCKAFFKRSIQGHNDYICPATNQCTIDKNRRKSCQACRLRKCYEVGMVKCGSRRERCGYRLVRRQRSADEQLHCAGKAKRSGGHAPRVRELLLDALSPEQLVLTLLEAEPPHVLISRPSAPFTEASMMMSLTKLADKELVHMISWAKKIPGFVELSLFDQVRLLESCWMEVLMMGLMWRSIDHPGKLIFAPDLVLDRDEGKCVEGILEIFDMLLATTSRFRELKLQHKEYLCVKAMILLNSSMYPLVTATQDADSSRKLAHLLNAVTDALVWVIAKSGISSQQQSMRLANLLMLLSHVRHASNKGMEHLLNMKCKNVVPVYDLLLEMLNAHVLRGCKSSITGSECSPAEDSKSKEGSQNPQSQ
molecule,measurement,setting,value
"CCCCOC(=O)c1ccc(O)cc1 [Butylparaben, butylparaben]","ligand class by SRC-1 peptide recruitment, ERβ",wild-type ERβ LBD,partial agonists (partial agonists (1 μM ≤ Kd ≤ values for apo-ERα or -ERβ))
"ClC(Cl)=C(c1ccc(Cl)cc1)c1ccc(Cl)cc1 [DDE, dichlorodiphenyldichloroethylene]","ligand class by SRC-1 peptide recruitment, ERα",wild-type ERα LBD,partial agonists (partial agonists (1 μM ≤ Kd ≤ values for apo-ERα or -ERβ))
"C[C@H]1CCC[C@H](O)CCCCCc2cc(O)cc(O)c2C(=O)O1 [α-ZA, α-zearalanol]","agonistic potential in words, FL-ERα",human ERα,efficiently activated
same,"ligand class by SRC-1 peptide recruitment, ERα",wild-type ERα LBD,strong agonists (strong agonists (Kd ≤ 1 μM))
"Oc1ccc(C(=C(Cl)Cl)c2ccc(O)cc2)cc1 [BPC, bisphenol C]",relative activation of the two ER subtypes,human ERα,activated ERα more efficiently than ERβ
"CC(C)(c1cc(Cl)c(O)c(Cl)c1)c1cc(Cl)c(O)c(Cl)c1 [TCBPA, tetrachlorobisphenol A]","agonistic potential in words, FL-ERβ",human ERβ,ERβ antagonists
same,"agonistic potential in words, ΔAB-ERβ",ΔAB-ERβ,ERβ antagonists
"Oc1ccc(C(c2ccc(O)cc2)C(Cl)(Cl)Cl)cc1 [HPTE, 2,2-bis(p-hydroxyphenyl)-1,1,1-trichloroethane]",ER activity reported in other studies,ER,agonistic properties
"O=C(c1ccc(O)cc1O)c1ccc(O)cc1O [BP-2, benzophenone-2]",relative activation of the two ER subtypes,human ERα,activated the two ER subtypes equally
same,"agonistic potential in words, FL-ERα",human ERα,full agonist
same,"agonistic potential in words, FL-ERβ",human ERβ,full agonist
same,"agonistic potential in words, ΔAB-ERα",ΔAB-ERα; HGELN-ΔAB-ERα,full agonist
same,AF-1 dependence of activity,ΔAB-ERα; full-length versus ΔAB (AF-1 deleted) ERs,fully AF-1–independent activity
same,"agonistic potential in words, ΔAB-ERβ",ΔAB-ERβ,full agonist
same,"ligand class by SRC-1 peptide recruitment, ERα",wild-type ERα LBD,strong agonists (strong agonists (Kd ≤ 1 μM))
same,"ligand class by SRC-1 peptide recruitment, ERβ",wild-type ERβ LBD,strong agonists (strong agonists (Kd ≤ 1 μM))
"CC(C)(C)CC(C)(C)c1ccc(O)cc1 [4-OP, 4-tert-octylphenol]","ligand class by SRC-1 peptide recruitment, ERβ",wild-type ERβ LBD,partial agonists (partial agonists (1 μM ≤ Kd ≤ values for apo-ERα or -ERβ))
"CC(C)(c1ccc(O)cc1)c1ccc(O)cc1 [BPA, bisphenol A]","ligand class by SRC-1 peptide recruitment, ERα",wild-type ERα LBD,partial agonists (partial agonists (1 μM ≤ Kd ≤ values for apo-ERα or -ERβ))
same,"ligand class by SRC-1 peptide recruitment, ERβ",wild-type ERβ LBD,partial agonists (partial agonists (1 μM ≤ Kd ≤ values for apo-ERα or -ERβ))
B1,Kd,[1],≥ 1000 nM
same,Kd,[2],≤ 1000 nM
same,Kd,[3],≤ 1000 nM
same,Kd,[4],≥ 1000 nM
